Data as given in patent US10562891B2, “Quinazolinones as PARP14 inhibitors” (Ribon Therapeutics Inc., priority 2017, dated 2020).
Where a name gives a salt, the structure may show the parent alone.

Target: catalytic domain of human PARP14 (Homo sapiens (Human), UniProt Q460N5)
Test: Enzymatic assay for inhibition of PARP14 (DELFIA, auto-modification with biotin-NAD)
Assay type: biochemical
Conditions: auto-modification of PARP14 by biotin-NAD, 50 nM PARP14, 3 μM biotin-NAD
How it was run: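 His-TEV-tagged PARP14 catalytic domain (50 nM) preincubated with compound 30 min at 25 °C, then auto-modified with 3 μM biotin-NAD for 3 h at 25 °C in HEPES pH 8 buffer with DTT. IC50 from 4-parameter fit, rucaparib and DMSO as controls.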

Sequence of catalytic domain of human PARP14 (Q460N5 1611-1801): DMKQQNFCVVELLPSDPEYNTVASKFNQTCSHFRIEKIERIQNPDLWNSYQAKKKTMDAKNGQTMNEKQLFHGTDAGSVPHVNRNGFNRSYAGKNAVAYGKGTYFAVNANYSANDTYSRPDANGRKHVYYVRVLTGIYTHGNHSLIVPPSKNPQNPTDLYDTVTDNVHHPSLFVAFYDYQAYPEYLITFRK

Compound	IC50
Cc1cccc2c(=O)[nH]c(CSC3CCN(Cc4ccc5c(c4)OCCN5C)CC3)nc12 [Example 158, 8-Methyl-2-(((1-((4-methyl-3,4-dihydro-2H-benzo[b][1,4]oxazin-7-yl)methyl)piperidin-4-yl)thio)methyl)quinazolin-4(3H)-one trifluoroacetate]	1 to 10 µM
Cc1cccc2c(=O)[nH]c(CSC3CCN(C[C@H](O)CO)CC3)nc12 [Example 159, (S)-2-(((1-(2,3-Dihydroxypropyl)piperidin-4-yl)thio)methyl)-8-methyl quinazolin-4(3H)-one Trifluoroacetate]	1 to 10 µM
Cc1cccc2c(=O)[nH]c(CSC3CCN(C[C@@H](O)CO)CC3)nc12 [Example 160, (R)-2-(((1-(2,3-Dihydroxypropyl)piperidin-4-yl)thio)methyl)-8-methyl quinazolin-4(3H)-one Trifluoroacetate]	1 to 10 µM
Cc1cccc2c(=O)[nH]c(CSC3CCN(C[C@@H]4CCCN4)CC3)nc12 [Example 161, (S)-8-Methyl-2-(((1-(pyrrolidin-2-ylmethyl)piperidin-4-yl)thio)methyl) quinazolin-4(3H)-one Hydrochloride]	1 to 10 µM
Cc1cccc2c(=O)[nH]c(CSC3CCN(CCO)CC3)nc12 [Example 162, 2-(((1-(2-Hydroxyethyl)piperidin-4-yl)thio)methyl)-8-methylquinazolin-4(3H)-one]	< 1 µM
Cc1cccc2c(=O)[nH]c(CSC3CCN(CCN)CC3)nc12 [Example 163, 2-(((1-(2-Aminoethyl)piperidin-4-yl)thio)methyl)-8-methylquinazolin-4(3H)-one dihydrochloride]	1 to 10 µM
Cc1cccc2c(=O)[nH]c(CSC3CCN(CCNC(=O)c4ccccn4)CC3)nc12 [Example 164, N-(2-(4-(((8-Methyl-4-oxo-3,4-dihydroquinazolin-2-yl)methyl)thio)piperidin-1-yl)ethyl)picolinamide]	1 to 10 µM
Cc1cccc2c(=O)[nH]c(CSC3CCN(CCCN)CC3)nc12 [Example 165, 2-(((1-(3-Aminopropyl)piperidin-4-yl)thio)methyl)-8-methylquinazolin-4(3H)-one dihydrochloride]	< 1 µM
Cc1cccc2c(=O)[nH]c(CSC3CCN(C(=O)CN)CC3)nc12 [Example 166, 2-(((1-Glycylpiperidin-4-yl)thio)methyl)-8-methylquinazolin-4(3H)-one Hydrochloride]	< 1 µM
Cc1cccc2c(=O)[nH]c(CSC3CCN(C(=O)CCN)CC3)nc12 [Example 167, 2-(((1-(3-Aminopropanoyl)piperidin-4-yl)thio)methyl)-8-methylquinazolin-4(3H)-one Hydrochloride]	1 to 10 µM
Cc1cccc2c(=O)[nH]c(CSC3CCN(C(=O)CCN(C)C)CC3)nc12 [Example 168, 2-(((1-(3-(Dimethylamino)propanoyl)piperidin-4-yl)thio)methyl)-8-methyl quinazolin-4(3H)-one]	1 to 10 µM
Cc1cccc2c(=O)[nH]c(CSC3CCN(C(=O)[C@H](N)CCCNC(=N)N)CC3)nc12 [Example 169, (R)-1-(4-Amino-5-(4-(((8-methyl-4-oxo-3,4-dihydroquinazolin-2-yl)methyl)thio)piperidin-1-yl)-5-oxopentyl)guanidine Trihydrochloride]	< 1 µM
Cc1cccc2c(=O)[nH]c(CSC3CCN(C(=O)[C@@H](N)CCCNC(=N)N)CC3)nc12 [Example 170, (S)-1-(4-Amino-5-(4-(((8-methyl-4-oxo-3,4-dihydroquinazolin-2-yl)methyl)thio)piperidin-1-yl)-5-oxopentyl)guanidine Trihydrochloride]	< 1 µM
Cc1cccc2c(=O)[nH]c(CSC3CCN(C(=O)[C@@H](N)CCCCN)CC3)nc12 [Example 171, 2-(((1-(L-Lysyl)piperidin-4-yl)thio)methyl)-8-methylquinazolin-4(3H)-one Dihydrochloride]	< 1 µM
Cc1cccc2c(=O)[nH]c(CSC3CCN(C(=O)[C@H](N)CCCCN)CC3)nc12 [Example 172, 2-(((1-(D-Lysyl)piperidin-4-yl)thio)methyl)-8-methylquinazolin-4(3H)-one Dihydrochloride]	< 1 µM
Cc1cccc2c(=O)[nH]c(CSC3CCN(C(=O)CCc4ccccn4)CC3)nc12 [Example 173, 8-Methyl-2-(((1-(3-(pyridin-2-yl)propanoyl)piperidin-4-yl)thio)methyl) quinazolin-4(3H)-one]	1 to 10 µM
O=c1[nH]c(CSC2CCNCC2)nc2cc(NC3CCCC3)cc(F)c12 [Example 176, 7-(Cyclopentylamino)-5-fluoro-2-((piperidin-4-ylthio)methyl)quinazolin-4(3H)-one Hydrochloride]	< 1 µM
O=c1[nH]c(CSC2CCNCC2)nc2cc(NC3CCC3)cc(F)c12 [Example 177, 7-(Cyclobutylamino)-5-fluoro-2-((piperidin-4-ylthio)methyl)quinazolin-4(3H)-one Hydrochloride]	< 1 µM

Further lines, results first:

IC50	Compound
< 1 µM	Cc1cccc2c(=O)[nH]c(CSC3CCN(S(C)(=O)=O)CC3)nc12 [Example 174, 8-Methyl-2-(((1-(methylsulfonyl)piperidin-4-yl)thio)methyl)quinazolin-4(3H)-one]
1 to 10 µM	Cc1cccc2c(=O)[nH]c(CSC3CCN(S(=O)(=O)c4ccccn4)CC3)nc12 [Example 175, 8-Methyl-2-(((1-(pyridin-2-ylsulfonyl)piperidin-4-yl)thio)methyl)quinazolin-4(3H)-one]
1 to 10 µM	CC(=O)NC[C@H]1CC[C@H](SCc2nc3c(C)cccc3c(=O)[nH]2)CC1 [Example 178, N-(((trans)-4-(((8-methyl-4-oxo-3,4-dihydroquinazolin-2-yl)methyl)thio)cyclohexyl)methyl)acetamide]
< 1 µM	O=c1[nH]c(CSC2CCNCC2)nc2cc(NC3CCCC3)ccc12 [Example 179, 7-(cyclopentylamino)-2-((piperidin-4-ylthio)methyl)quinazolin-4(3H)-one]
< 1 µM	O=c1[nH]c(CS[C@H]2CC[C@H](CO)CC2)nc2cc(NC3CCCC3)ccc12 [Example 180, 7-(cyclopentylamino)-2-((((1R,4R)-4-(hydroxymethyl)cyclohexyl)thio)methyl)quinazolin-4(3H)-one]
< 1 µM	Cc1cccc2c(=O)[nH]c(CS[C@H]3CC[C@H](CCN)CC3)nc12 [Example 181, 2-((((trans)-4-(2-aminoethyl)cyclohexyl)thio)methyl)-8-methylquinazolin-4(3H)-one]
1 to 10 µM	Cc1cccc2c(=O)[nH]c(CSC3CC(CN)C3)nc12 (centres unmarked) [Example 182, 2-(((3-(aminomethyl)cyclobutyl)thio)methyl)-8-methylquinazolin-4(3H)-one]
< 1 µM	O=c1[nH]c(CSC2CCOCC2)nc2cc(NC3CCCC3)cc(F)c12 [Example 184, 7-(cyclopentylamino)-5-fluoro-2-(((tetrahydro-2H-pyran-4-yl)thio)methyl)quinazolin-4(3H)-one]
< 1 µM	O=c1[nH]c(CS[C@H]2CC[C@H](O)CC2)nc2cc(NC3CCCC3)cc(F)c12 [Example 185, 7-(cyclopentylamino)-5-fluoro-2-((((1R,4R)-4-hydroxycyclohexyl)thio)methyl)quinazolin-4(3H)-one]
< 1 µM	O=c1[nH]c(CSC2CCOCC2)nc2nc(NC3CCCC3)ccc12 [Example 186, 7-(cyclopentylamino)-2-(((tetrahydro-2H-pyran-4-yl)thio)methyl)pyrido[2,3-d]pyrimidin-4(3H)-one]
< 1 µM	O=c1[nH]c(CSC2CCOCC2)nc2cc(N[C@H]3CCCOC3)ccc12 [Example 187, (S)-7-((tetrahydro-2H-pyran-3-yl)amino)-2-(((tetrahydro-2H-pyran-4-yl)thio)methyl)quinazolin-4(3H)-one]
> 10 µM	O=c1[nH]c(CSC2CCOCC2)nc2cc(NC3CCCC3)cnc12 [Example 188, 7-(cyclopentylamino)-2-(((tetrahydro-2H-pyran-4-yl)thio)methyl)pyrido[3,2-d]pyrimidin-4(3H)-one]
1 to 10 µM	O=c1[nH]c(CSC2CCOCC2)nc2cc(NC3CCCC3)ncc12 [Example 189, 7-(cyclopentylamino)-2-(((tetrahydro-2H-pyran-4-yl)thio)methyl)pyrido[4,3-d]pyrimidin-4(3H)-one]
< 1 µM	O=c1[nH]c(CSC2CCCNCC2)nc2cc(NC3CCCC3)ccc12 (centres unmarked) [Example 190, 2-((azepan-4-ylthio)methyl)-7-(cyclopentylamino)quinazolin-4(3H)-one]
1 to 10 µM	Cc1cccc2c(=O)[nH]c(CSC3CCC(CN)C3)nc12 (centres unmarked) [Example 191, 2-(((3-(aminomethyl)cyclopentyl)thio)methyl)-8-methylquinazolin-4(3H)-one]
< 1 µM	Cc1cc(Nc2ccc3c(=O)[nH]c(CSC4CCOCC4)nc3c2)on1 [Example 192, 7-((3-methylisoxazol-5-yl)amino)-2-(((tetrahydro-2H-pyran-4-yl)thio)methyl)quinazolin-4(3H)-one]
< 1 µM	CS(=O)(=O)N1CCC[C@@H](Nc2ccc3c(=O)[nH]c(CSC4CCOCC4)nc3c2)C1 [Example 193, (R)-7-((1-(methylsulfonyl)piperidin-3-yl)amino)-2-(((tetrahydro-2H-pyran-4-yl)thio)methyl)quinazolin-4(3H)-one]
< 1 µM	O=c1[nH]c(CS[C@H]2CC[C@H](O)CC2)nc2cc(NC3CCC3)ccc12 [Example 194, 7-(cyclobutylamino)-2-((((1R,4R)-4-hydroxycyclohexyl)thio)methyl)quinazolin-4(3H)-one]
< 1 µM	CS(=O)(=O)N1CC(Nc2ccc3c(=O)[nH]c(CSC4CCOCC4)nc3c2)C1 [Example 195, 7-((1-(methylsulfonyl)azetidin-3-yl)amino)-2-(((tetrahydro-2H-pyran-4-yl)thio)methyl)quinazolin-4(3H)-one]
< 1 µM	CS(=O)(=O)N1CCC[C@@H](Nc2ccc3c(=O)[nH]c(CSC4CCNCC4)nc3c2)C1 [Example 196, (R)-7-((1-(methylsulfonyl)piperidin-3-yl)amino)-2-((piperidin-4-ylthio)methyl)quinazolin-4(3H)-one]
